# Test results taken from patent US6346535B1, “Fungicidal mixtures” (American Cyanamid Company, priority 1999, dated 2002).
# Where two headings read alike, the source gives them in different places.
# Legend:
# Format in all cases: in vivo
# [1] = system: Puccinia recondita on wheat; assay: Greenhouse trial, 4 day residual, Puccinia recondita on wheat; settings: for pest or weed control at 4 ppm / pest or weed control at 16 ppm / pest or weed control at 64 ppm / pest or weed control at 256 ppm / pest or weed control at 0.4 ppm / pest or weed control at 2 ppm / pest or weed control at 10 ppm / pest or weed control at 50 ppm: Puccinia recondita, 96 h, read-out: Observed Efficacy; for pest or weed control at 4 ppm / pest or weed control at 16 ppm / pest or weed control at 64 ppm / pest or weed control at 256 ppm / Observed Efficacy: compound alone; for pest or weed control at 0.4 ppm / pest or weed control at 2 ppm / pest or weed control at 10 ppm / pest or weed control at 50 ppm: Table XV (Example 15), 4 day residual; for pest or weed control at 0.4 ppm: dose rate 0.4 ppm; for pest or weed control at 2 ppm: dose rate 2 ppm; for pest or weed control at 10 ppm: dose rate 10 ppm; for pest or weed control at 50 ppm: dose rate 50 ppm
# Description: (§1) The fungicides are applied in single treatments, or in a combination comprising a benzophenone of formula I and a compound selected from (A) through (E) as defined above. The compounds are applied in form of an aqueous spray mix obtained from a concentrated formulation or the technical material.
# (§2) 1. Seed is planted in 6 cm diameter plastic pots and maintained in the greenhouse.
# (§3) 2. When the primary leaf is fully expanded (in the case of cereals) or several leaves are present (in the case of dicots), formulated test compounds are sprayed with a three nozzle overhead fungicide sprayer to near run-off. Alternatively, a single nozzle overhead track sprayer is used for application of the compounds to cereals at a rate of 200 liters/ha (l/ha). Plants are then allowed to air-dry.
# (§4) 3. Inoculation precedes treatment in the case of curative evaluations and follows treatment in case of residual evaluations. For inoculation of powdery mildew disease, plants are set up on greenhouse benches with bottom watering mats and inoculated by dusting them with conidia from infected plants. Between inoculation and treatment for curative evaluations and between treatment and inoculation for residual evaluations, plants are maintained in the greenhouse with bottom watering. For inoculation of non-powdery mildew diseases, an aqueous spore suspension of the pathogen is applied to the plant and the plants are kept 1-2 days in a moist infection chamber before being returned to the greenhouse where they are maintained by bottom watering.
# (§5) 4. Disease on the foliage as percent leaf area with disease symptoms/signs is evaluated about 7 days after inoculation. In the case of wheat, the tips and bases of the leaves are excluded from the evaluation. [formula]
# (§6) 1. Technical compounds are formulated in a solvent/surfactant system consisting of 5% acetone and 0.05% Tween 20 in deionized water. Compounds are dissolved in acetone prior to addition of the water; the Tween 20 can be added through either the acetone or the water. Dilutions are made using the solvent/surfactant system. Formulated compounds are prepared using deionized water.
# (§7) Assessments of the diseases took place at the indicated day after the application of the compounds. Per cent infected leaf area infected was evaluated. The efficacy of the compounds/compounds mixtures to control the diseases was calculated by using the formula given above under item 4: […]
# (§8) Synergy of a fungicide mixture was determined by comparing the actual (observed) fungicidal activity of the mixture to the expected fungicidal activity of the mixture as calculated using the COLBY formula given hereinabove.
# Fungicidal Efficacy of the Mixture of BP-4+Other Fungicides (4 Day Residual) Against Puccinia recondita on Wheat
# Fungicidal Efficacy of the Mixture of BP-4+Myclobutanil (4 Day Residual) Against Puccinia recondita on Wheat
# [2] = system: Erysiphe cichoracearum on cucumbers; assay: Greenhouse trial, 4 day residual, Erysiphe cichoracearum on cucumbers; settings: for pest or weed control at 0.4 ppm / pest or weed control at 2 ppm / pest or weed control at 10 ppm / pest or weed control at 50 ppm / pest or weed control at 4 ppm / pest or weed control at 16 ppm / pest or weed control at 64 ppm / pest or weed control at 256 ppm: Golovinomyces cichoracearum, 96 h, read-out: Observed Efficacy
# Description: as §1, §2, §3, §4, §5, §6, §7, §8
# [3] = system: Leptosphaeria nodorum on wheat; assay: Greenhouse trial, 4 day residual, Leptosphaeria nodorum on wheat; settings: for pest or weed control at 4 ppm / pest or weed control at 16 ppm / pest or weed control at 64 ppm / pest or weed control at 256 ppm: Parastagonospora nodorum, 96 h, read-out: Observed Efficacy
# Description: as §1, §2, §3, §4, §5, §6, §7, §8
# Fungicidal Efficacy of the Mixture of BP-4+Other Fungicides (4 Day Residual) Against Leptosphaeria nodorum on Wheat
# [4] = Table VI, compound alone, dose rate 4 ppm
# [5] = Table VI, compound alone, dose rate 16 ppm
# [6] = Table VI, compound alone, dose rate 64 ppm
# [7] = Table VI, compound alone, dose rate 256 ppm
# [8] = Table XI, compound alone, dose rate 0.4 ppm
# [9] = Table XI, compound alone, dose rate 2 ppm
# [10] = Table XI, compound alone, dose rate 10 ppm
# [11] = Table XI, compound alone, dose rate 50 ppm
# [12] = Table X, compound alone, dose rate 64 ppm
# [13] = Table X, compound alone, dose rate 256 ppm
# [14] = Table XIV (Example 14), 4 day residual, dose rate 0.4 ppm
# [15] = Table XIV (Example 14), 4 day residual, dose rate 2 ppm
# [16] = Table XIV (Example 14), 4 day residual, dose rate 10 ppm
# [17] = Table XIV (Example 14), 4 day residual, dose rate 50 ppm
# [18] = Table VIII, compound alone, dose rate 4 ppm
# [19] = Table VIII, compound alone, dose rate 16 ppm
# [20] = Table VIII, compound alone, dose rate 64 ppm
# [21] = Table VIII, compound alone, dose rate 256 ppm
molecule,measurement,setting,value
N#Cc1c[nH]cc1-c1cccc(Cl)c1Cl [Fenpiclonil],pest or weed control at 4 ppm,"[1]; Table IX, dose rate 4 ppm",1%
same,pest or weed control at 16 ppm,"[1]; Table IX, dose rate 16 ppm",0%
same,pest or weed control at 64 ppm,"[1]; Table IX, dose rate 64 ppm",18%
same,pest or weed control at 256 ppm,"[1]; Table IX, dose rate 256 ppm",58%
"CSC(=O)c1cccc2nnsc12 [BION, acibenzolar]",Observed Efficacy,[2]; [4],0%
same,Observed Efficacy,[2]; [5],0%
same,Observed Efficacy,[2]; [6],0%
same,Observed Efficacy,[2]; [7],0%
same,Observed Efficacy,"[1]; Table VII, dose rate 4 ppm",0%
same,Observed Efficacy,"[1]; Table VII, dose rate 16 ppm",0%
same,Observed Efficacy,"[1]; Table VII, dose rate 64 ppm",0%
same,Observed Efficacy,"[1]; Table VII, dose rate 256 ppm",0%
CC(Oc1ccc(Cl)cc1Cl)C(=O)NC(C)(C#N)C(C)C (stereo not shown) [AC 382042],Observed Efficacy,[2]; [8],7%
same,Observed Efficacy,[2]; [9],3%
same,Observed Efficacy,[2]; [10],14%
same,Observed Efficacy,[2]; [11],25%
CCCCCCCCCCCCNC(=N)N [Dodine],pest or weed control at 4 ppm,[3],0%
same,pest or weed control at 16 ppm,[3],6%
same,pest or weed control at 64 ppm,[3],24%
same,pest or weed control at 256 ppm,[3],59%
Fc1ccc([C@]2(Cn3cncn3)O[C@H]2c2ccccc2Cl)cc1 (racemic) [Epoxiconazole],pest or weed control at 0.4 ppm,[2]; [8],0%
same,pest or weed control at 2 ppm,[2]; [9],46%
same,pest or weed control at 10 ppm,[2]; [10],68%
same,pest or weed control at 50 ppm,[2]; [11],77%
C[C@@]1(c2ccc(Oc3ccccc3)cc2)OC(=O)N(Nc2ccccc2)C1=O (racemic) [Famoxadone],pest or weed control at 4 ppm,"[3]; Table X, compound alone, dose rate 4 ppm",66%
same,pest or weed control at 16 ppm,"[3]; Table X, compound alone, dose rate 16 ppm",69%
same,pest or weed control at 64 ppm,[3]; [12],80%
same,pest or weed control at 256 ppm,[3]; [13],97%
same,pest or weed control at 4 ppm,"[1]; Table IX, dose rate 4 ppm",45%
same,pest or weed control at 16 ppm,"[1]; Table IX, dose rate 16 ppm",80%
same,pest or weed control at 64 ppm,"[1]; Table IX, dose rate 64 ppm",92%
O=[N+]([O-])c1cc(C(F)(F)F)c(Cl)c([N+](=O)[O-])c1Nc1ncc(C(F)(F)F)cc1Cl [Fluazinam],pest or weed control at 64 ppm,[3]; [12],81%
same,pest or weed control at 256 ppm,[3]; [13],91%
same,pest or weed control at 4 ppm,"[1]; Table IX, dose rate 4 ppm",0%
same,pest or weed control at 16 ppm,"[1]; Table IX, dose rate 16 ppm",6%
same,pest or weed control at 64 ppm,"[1]; Table IX, dose rate 64 ppm",22%
same,pest or weed control at 256 ppm,"[1]; Table IX, dose rate 256 ppm",80%
CCCC(Cn1cncn1)c1ccc(Cl)cc1Cl (stereo not shown) [Penconazole],pest or weed control at 0.4 ppm,[2]; [14],6%
same,pest or weed control at 2 ppm,[2]; [15],35%
same,pest or weed control at 10 ppm,[2]; [16],37%
same,pest or weed control at 50 ppm,[2]; [17],67%
same,pest or weed control at 0.4 ppm,[1],0%
same,pest or weed control at 2 ppm,[1],3%
same,pest or weed control at 10 ppm,[1],10%
same,pest or weed control at 50 ppm,[1],26%
O=C1C2CC=CCC2C(=O)N1SC(Cl)(Cl)Cl (stereo not shown) [Captan],pest or weed control at 64 ppm,[3]; [12],84%
same,pest or weed control at 256 ppm,[3]; [13],90%
same,pest or weed control at 4 ppm,"[1]; Table IX, dose rate 4 ppm",4%
same,pest or weed control at 16 ppm,"[1]; Table IX, dose rate 16 ppm",11%
same,pest or weed control at 64 ppm,"[1]; Table IX, dose rate 64 ppm",55%
same,pest or weed control at 256 ppm,"[1]; Table IX, dose rate 256 ppm",89%
CO/C=C(/C(=O)OC)c1ccccc1Oc1cc(Oc2ccccc2C#N)ncn1 [Azoxystrobin],Observed Efficacy,[3]; [18],84%
same,Observed Efficacy,[3]; [19],97%
same,Observed Efficacy,[3]; [20],100%
same,Observed Efficacy,[3]; [21],100%
same,Observed Efficacy,[2]; [4],78%
same,Observed Efficacy,[2]; [5],96%
same,Observed Efficacy,[2]; [6],100%
same,Observed Efficacy,[2]; [7],100%
CC(C)(C)C(O)C(Oc1ccc(Cl)cc1)n1cncn1 (stereo not shown) [Triadimenol],pest or weed control at 0.4 ppm,[2]; [14],1%
same,pest or weed control at 2 ppm,[2]; [15],21%
same,pest or weed control at 10 ppm,[2]; [16],45%
same,pest or weed control at 50 ppm,[2]; [17],68%
same,pest or weed control at 0.4 ppm,[1],1%
same,pest or weed control at 2 ppm,[1],21%
same,pest or weed control at 10 ppm,[1],69%
same,pest or weed control at 50 ppm,[1],98%
N#Cc1c(Cl)c(Cl)c(Cl)c(C#N)c1Cl [Chlorothalonil],pest or weed control at 4 ppm,[2]; [4],0%
same,pest or weed control at 16 ppm,[2]; [5],0%
same,pest or weed control at 64 ppm,[2]; [6],0%
same,pest or weed control at 256 ppm,[2]; [7],1%
same,pest or weed control at 4 ppm,"[1]; Table VII, dose rate 4 ppm",0%
same,pest or weed control at 16 ppm,"[1]; Table VII, dose rate 16 ppm",0%
same,pest or weed control at 64 ppm,"[1]; Table VII, dose rate 64 ppm",0%
same,pest or weed control at 256 ppm,"[1]; Table VII, dose rate 256 ppm",31%
Cyprodinil,Observed Efficacy,[3]; [18],0%
same,Observed Efficacy,[3]; [19],75%
same,Observed Efficacy,[3]; [20],88%
same,Observed Efficacy,[3]; [21],93%
same,Observed Efficacy,[2]; [4],0%
same,Observed Efficacy,[2]; [5],0%
same,Observed Efficacy,[2]; [6],0%
same,Observed Efficacy,[2]; [7],15%
same,Observed Efficacy,"[1]; Table VII, dose rate 4 ppm",0%
same,Observed Efficacy,"[1]; Table VII, dose rate 16 ppm",0%
same,Observed Efficacy,"[1]; Table VII, dose rate 64 ppm",0%
same,Observed Efficacy,"[1]; Table VII, dose rate 256 ppm",0%
CC(C)(C)C(O)(CCc1ccc(Cl)cc1)Cn1cncn1 (stereo not shown) [Tebuconazole],pest or weed control at 0.4 ppm,[2]; [8],10%
same,pest or weed control at 2 ppm,[2]; [9],45%
same,pest or weed control at 10 ppm,[2]; [10],79%
same,pest or weed control at 50 ppm,[2]; [11],95%
N#Cc1sc2c(=O)c3ccccc3c(=O)c=2sc1C#N [Dithianon],pest or weed control at 4 ppm,[3]; [18],0%
same,pest or weed control at 16 ppm,[3]; [19],1%
same,pest or weed control at 64 ppm,[3]; [20],37%
same,pest or weed control at 256 ppm,[3]; [21],74%
same,pest or weed control at 4 ppm,[2]; [4],0%
same,pest or weed control at 16 ppm,[2]; [5],0%
same,pest or weed control at 64 ppm,[2]; [6],0%
same,pest or weed control at 256 ppm,[2]; [7],0%
same,pest or weed control at 4 ppm,"[1]; Table VII, dose rate 4 ppm",4%
same,pest or weed control at 16 ppm,"[1]; Table VII, dose rate 16 ppm",16%
same,pest or weed control at 64 ppm,"[1]; Table VII, dose rate 64 ppm",84%
same,pest or weed control at 256 ppm,"[1]; Table VII, dose rate 256 ppm",95%
Mancozeb,Observed Efficacy,[3]; [18],0%
same,Observed Efficacy,[3]; [19],21%
same,Observed Efficacy,[3]; [20],47%
same,Observed Efficacy,[3]; [21],69%
same,Observed Efficacy,[2]; [4],0%
same,Observed Efficacy,[2]; [5],0%
same,Observed Efficacy,[2]; [6],1%
same,Observed Efficacy,[2]; [7],33%
same,Observed Efficacy,"[1]; Table VII, dose rate 4 ppm",0%
same,Observed Efficacy,"[1]; Table VII, dose rate 16 ppm",0%
same,Observed Efficacy,"[1]; Table VII, dose rate 64 ppm",28%
same,Observed Efficacy,"[1]; Table VII, dose rate 256 ppm",91%
Ethirimol,Observed Efficacy,[2]; [4],50%
same,Observed Efficacy,[2]; [5],83%
same,Observed Efficacy,[2]; [6],94%
same,Observed Efficacy,[2]; [7],100%
same,Observed Efficacy,"[1]; Table VII, dose rate 16 ppm",0%
same,Observed Efficacy,"[1]; Table VII, dose rate 64 ppm",0%
same,Observed Efficacy,"[1]; Table VII, dose rate 256 ppm",0%
COCC(=O)N(c1c(C)cccc1C)C(C)C(=O)OC (stereo not shown) [Metalaxyl],pest or weed control at 64 ppm,"[1]; Table IX, dose rate 64 ppm",0%
same,pest or weed control at 256 ppm,"[1]; Table IX, dose rate 256 ppm",12%
